Measured values as given in US10822376B2, “Biologically active peptides” (Baxalta Incorporated, priority 2008, dated 2020).
Values after ≈ are worked out from the molar mass of the structure shown. *1 amine or outer side, *2 acyl side, *3 side chain or, on linkers, in order; H or OH if unused. Where a SMILES comes first, the peptide text is derived from it. Where no end group is shown, it is not given here. [ ]: non-standard residue; d: D form. The star is where a group is joined. NH(CH2)3(OCH2CH2)2O(CH2)3NH = C(CN[*:1])COCCOCCOCCCN[*:2]; X1 = NC(=O)CCC(=O)NCCCOCCOCCOCCCN*; Suc = O=C(CCC(=O)[*:2])[*:1]

What was measured:
[1] = system: human FVIII inhibited plasma; test: Defined Intrinsic Thrombin Generation Assay (DITGA, triggered by FXIa and phospholipids); assay type: biochemical; conditions: for Activity in the Defined Intrinsic Thrombin Generation Assay: summary
Excerpt: (§1) The intrinsic pathway of thrombin generation may be assayed in a thrombin generation assay by including FXIa and phospholipids. In such an assay, which is similar to an activated partial thromboplastin time (aPTT) test, thrombin generation is solely directed through the intrinsic pathway, and is FVIII dependent. A suitable assay is the Defined Intrinsic Thrombin Generation Assay described below. Alternatively, by employing low concentrations of TF and phospholipids instead of FXIa and phospholipids, thrombin is generated by both the extrinsic (tissue factor) and the intrinsic pathways. This form of the thrombin generation assay is the more physiologic one, as both thrombin generation pathways are involved; it is partially FVIII dependent. A suitable assay is the Defined Dual-Pathway Thrombin Generation Assay.
The Defined Intrinsic Thrombin Generation Assay is performed as follows. FVIII activity of human plasma is inhibited by incubating (2 hours, 37° C.) 40 μl of human normal plasma with 10 μl heat inactivated anti-human FVIII plasma raised in goat (600 BU/ml, 6 hours incubated at 56° C.). […] Instead of FVIII-inhibited plasma, FVIII inhibitor patient plasma or several depleted plasmas can be used. The micro-plate is immediately put into a GENios Plus (Tecan) or Safire 2 (Tecan) fluorescence reader and the fluorescence signal (ex 340 nm/em 440 nm) is followed kinetically by reading the plate every 21 seconds.
For calculation of activity equivalent units experiments are performed with dilutions of Factor Eight Inhibitor Bypassing Agent (FEIBA, Baxter AG), Immunate (human FVIII, purified plasma derived) reference standard (Baxter AG) or Recombinate standard (human FVIII, purified recombinant, Baxter AG). A linear fit of the logarithm of FEIBA (FVIII) concentration plotted against thrombin generation time at peak thrombin results in a standard curve. With this curve FEIBA (FVIII) equivalent activity is calculated for a defined peptide concentration. […] Thus, where a concentration of 100 μM is given, the actual concentration in the final assay volume in 40 μM.
Compounds were screened using the “Defined intrinsic thrombin generation assay” in which thrombin generation was quantified in vitro in FVIII-inhibited human plasma in the presence of Factor XIa and phospholipid vesicles. Further compounds were screened in the above assay, and in the “Defined dual-pathway thrombin generation assay” using tissue factor and phospholipids instead of Factor XIa and phospholipids, as described in the specific description.
Various concentrations of each peptide were tested in the defined intrinsic thrombin generation assay using human FVIII inhibited plasma.

[2] = system: FVIII inhibited plasma; test: Defined Dual-Pathway Thrombin Generation Assay (DDPTGA, reagent C high), FVIII inhibited plasma; assay type: biochemical, human; conditions: for Peak IIa FEIBA EU / Peak IIa FVIIa EU / Peak Time FEIBA EU / Peak Time FVIIa EU: FVIII inhibited plasma; for Activity in the Defined Dual-Pathway Thrombin Generation Assay: summary, FVIII inhibited or deficient plasma
Excerpt: as §1
(§2) Preferably, Reagent C high is used.
(§3) Tissue factor dependency of peak thrombin generation and thrombin peak time was characterised in a composition containing a fixed concentration of phospholipid (namely 3.2 μM). Phospholipid dependency was characterised in a composition containing a fixed concentration of tissue factor (namely 7.2 μM). Peak time (time to peak thrombin generation) was dependent on the concentration of phospholipid or tissue factor. The final version of this assay is as described in the specific description, in which 10 μl reagent C high containing (32 μM phospholipid and 71.6 μM tissue factor) is used in a total volume of 100 μl.
(§4) Further studies were conducted using 3.2 μM phospholipid and 7.2 μM tissue factor in FVIII deficient or inhibited plasma, to characterise the effect on peak thrombin generation and thrombin peak time of various coagulation factor preparations. These studies provided a basis from which to compare the efficacy of the compounds in the assay. Briefly, rFVIII (Recombinate® FVIII from Baxter) was tested at 0, 5, 10, 20, 40 and 80 mU/ml in FVIII deficient plasma. FEIBA was tested at 0, 8, 16, 31, 63 and 125 mU/ml in FVIII inhibited plasma. FVIIa was tested at 0, 0.1, 0.4, 1.6, 6.3 and 25 nM in FVIII inhibited plasma. […] Peak thrombin increased and both the lag time and the thrombin peak time decrease.

[3] = system: FVIII deficient plasma; test: Defined Dual-Pathway Thrombin Generation Assay (DDPTGA, reagent C high), FVIII deficient plasma; assay type: biochemical, human; conditions: FVIII deficient plasma
Excerpt: as §1, §2, §3, §4

[4] = system: Factor VIII deficient human plasma; test: DDPTGA (reagent B) in FVIII depleted plasma; assay type: biochemical; conditions: compounds at 50 μM and 80, 90 or 100 μM; also: key: '+' means stimulates; '−' means does not stimulate
Excerpt: as §2

[5] = physchem; conditions: pH 7.4
Protocol: (§5) Aqueous solubility is measured in PBS at pH 7.4 either in an assay provided by Cerep (France, Catalog ref. 900-11a) or according to the following protocol. The aim of this procedure is to determine the solubility of a drug candidate (analyte) in a buffer, by estimating the saturation concentration of the candidate in the buffer using HPLC. A known concentration of the candidate in an organic solvent is used as a standard. A stock solution of the test compound in DMSO must be prepared as the initial step. […] DMSO stock-solutions are diluted to a final concentration of 50 μM with DMSO (100% reference-solution) and buffer (test-solution) to provide a minimum volume of 500 μL of each. Both solutions are shaken at 25° C. at 950 rpm in an Eppendorf “thermomixer comfort” for at least 60 min. The suspension is centrifuged at 22 330 g for at least two min and 100 μL of the supernatant is transferred into polypropylene-inserts placed in glass vials and closed by snap-ring caps. Alternatively the solutions can be prepared in microtiter plates with half of the previously described starting solvent volume. For the determination of the solubility all samples are analyzed by HPLC in triplicate. Injection volume is at least 10 μL. The obtained data are analyzed by “Chemstation-software” (Agilent, Waldbronn, Germany). The peaks from the analyses of the organic solutions are integrated and the arithmetic mean is reported as “AUC 1” (reference area of known amount injected at the HPLC). […] The ratio of the mean “AUC 2” and “AUC 1” is calculated and thus the percentage of the dissolved amount of compound in buffer is obtained and solubility can be reported in μM.

[6] = Plasma stability; conditions: human
Protocol: Half-life of compounds in human or mouse plasma, or percentage of compound remaining after an incubation in human or mouse plasma, is determined as follows. In the experimental procedure, test compound concentrations are 5 μM, prepared from test compound stock solutions of 10 mM in DMSO. Propantheline is used as a standard. […] All of the samples are incubated in a water bath at 37° C. […] After a chosen duration of incubation (generally at t=60 min) each sample is mixed with a further 500 μl acetonitrile. The samples are mixed on a vortex mixer for 30 s and placed on ice for 10 min and collected for centrifugation. Samples are centrifuged at 20 000 g for 10 min at 4° C. 500 μl supernatant is transferred into a new 1.5 ml Eppendorf tube and an equal volume of acetonitrile is added. The sample is mixed again for 30 s using a vortex mixer. After a second centrifugation step (20 000 g, 10 min, 4° C.) 250 μl of the supernatant is transferred into HPLC glass vials for HPLC-MS analysis. Conditions for performing HPLC are as follows: Injection-volume is set to 20 μl. Temperature is set to 25° C. A linear gradient from 95:5 to 5:95 water:acetonitrile both containing 0:05% trifluoroacetic acid (TFA) (v/v) is applied at a flow rate of 0.3 ml/min for 10 min. The PDA-detector is scanning from 210-400 nm.

[7] = in vitro; conditions: human, pH 7.4
[8] = in vitro; conditions: mouse, pH 7.4
[9] = molecular target: HERG channel (Homo sapiens, UniProt Q12809); test: HERG inhibition, patch clamp assay
Sequence of HERG channel (Q12809 whole entry): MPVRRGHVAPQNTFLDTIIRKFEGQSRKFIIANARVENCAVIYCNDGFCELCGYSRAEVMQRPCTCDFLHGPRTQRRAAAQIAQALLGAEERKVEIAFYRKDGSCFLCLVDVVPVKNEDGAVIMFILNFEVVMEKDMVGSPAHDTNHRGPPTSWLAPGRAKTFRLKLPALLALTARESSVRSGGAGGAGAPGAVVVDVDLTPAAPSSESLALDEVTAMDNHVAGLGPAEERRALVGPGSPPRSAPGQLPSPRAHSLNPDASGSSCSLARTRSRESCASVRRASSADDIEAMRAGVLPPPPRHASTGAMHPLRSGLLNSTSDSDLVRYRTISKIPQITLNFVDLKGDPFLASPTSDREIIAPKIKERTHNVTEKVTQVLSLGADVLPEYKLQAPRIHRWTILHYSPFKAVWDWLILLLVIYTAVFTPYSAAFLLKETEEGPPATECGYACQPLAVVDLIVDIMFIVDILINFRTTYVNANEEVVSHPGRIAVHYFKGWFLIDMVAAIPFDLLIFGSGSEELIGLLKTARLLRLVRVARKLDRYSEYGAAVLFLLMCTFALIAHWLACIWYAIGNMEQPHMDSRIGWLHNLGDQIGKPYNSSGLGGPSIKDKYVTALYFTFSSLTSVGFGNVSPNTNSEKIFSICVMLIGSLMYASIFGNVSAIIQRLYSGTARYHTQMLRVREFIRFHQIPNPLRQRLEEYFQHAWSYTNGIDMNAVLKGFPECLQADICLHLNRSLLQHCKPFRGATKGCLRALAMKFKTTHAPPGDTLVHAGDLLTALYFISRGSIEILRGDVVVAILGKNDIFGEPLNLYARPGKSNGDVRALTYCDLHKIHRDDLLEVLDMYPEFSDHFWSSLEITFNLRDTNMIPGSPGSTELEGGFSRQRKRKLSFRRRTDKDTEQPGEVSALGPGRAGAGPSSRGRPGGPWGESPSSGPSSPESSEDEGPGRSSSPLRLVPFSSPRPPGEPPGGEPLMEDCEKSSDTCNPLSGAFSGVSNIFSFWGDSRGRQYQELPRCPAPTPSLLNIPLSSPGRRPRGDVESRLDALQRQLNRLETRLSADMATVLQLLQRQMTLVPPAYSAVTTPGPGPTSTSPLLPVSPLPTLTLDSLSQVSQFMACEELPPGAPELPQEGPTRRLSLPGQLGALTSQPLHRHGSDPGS
Protocol: QT prolongation is assessed by HERG inhibition measured by patch-clamp techniques or Rb^+ efflux.
For rigorous characterization of HERG inhibition the patch clamp assay is applied (Cerep, France, Catalog ref. 900-36). […] The test compounds (10 mM stock solutions) were dissolved in dimethylsulfoxide (DMSO). The solutions at 1 μM contained 0.01% DMSO.

[10] = pH 7.4
Protocol: as §5

Compound | Thrombin peak time given as FEIBA equivalent activity ([1]; peptide 6.25 μM) | Thrombin peak time given as FEIBA equivalent activity ([1]; peptide 12.5 μM) | Thrombin peak time given as FEIBA equivalent activity ([1]; peptide 25 μM) | Thrombin peak time given as FEIBA equivalent activity ([1]; peptide 50 μM) | Thrombin peak time given as FEIBA equivalent activity ([1]; peptide 100 μM) | Activity in the Defined Intrinsic Thrombin Generation Assay [1] | Peak IIa FEIBA EU ([2]; peptide 50 μM) | Peak IIa FVIIa EU ([2]; peptide 50 μM) | Peak Time FEIBA EU ([2]; peptide 50 μM) | Peak Time FVIIa EU ([2]; peptide 50 μM) | Activity in the Defined Dual-Pathway Thrombin Generation Assay [2] | Peak IIa FVIII EU ([3]; peptide 50 μM) | Peak Time FVIII EU ([3]; peptide 50 μM) | solubility kinetic [5] | remaining at 0.5 h, 5 μM [6] | Peak IIa FEIBA EU ([2]; peptide 100 μM) | Peak IIa FVIIa EU ([2]; peptide 100 μM) | Peak Time FEIBA EU ([2]; peptide 100 μM) | Peak Time FVIIa EU ([2]; peptide 100 μM) | Peak IIa FVIII EU ([3]; peptide 100 μM) | other results
CC[C@H](C)[C@H](NC(=O)[C@H](CCC(=O)O)NC(=O)[C@H](Cc1ccccc1)NC(=O)[C@H](Cc1ccc(O)cc1)NC(=O)[C@H](CC(C)C)NC(=O)[C@H](CC(=O)O)NC(=O)[C@H](Cc1c[nH]c2ccccc12)NC(=O)[C@@H](NC(=O)[C@H](CC(=O)O)NC(=O)[C@H](Cc1ccccc1)NC(=O)[C@H](CCC(=O)O)NC(=O)[C@H](CCSC)NC(=O)[C@H](CCCNC(=N)N)NC(=O)CCC(=O)NCCCOCCOCCOCCCN)C(C)C)C(=O)N[C@H](C(=O)N[C@@H](Cc1c[nH]c2ccccc12)C(=O)NCCCOCCOCCOCCCNC(=O)CCC(N)=O)C(C)C [Peptide A08] ({NH(CH2)3(OCH2CH2)2O(CH2)3NH-Suc}-RMEFDVWDLYFEIVW-X1) | 563 mU/ml | 656 mU/ml | 764 mU/ml | 958 mU/ml | 1213 mU/ml | possess activity | BLS (BLS = below lowest standard.) | BLS (BLS = below lowest standard.) | 9.1 mU/ml | 0.4 nM | possess activity | BLS (BLS = below lowest standard.) | BLS (BLS = below lowest standard.) | 11 µM (≈ 29.2 µg/mL) | 70% |  |  |  |  |  | Stimulation of thrombin generation [4]: +
CC[C@@H](C)[C@@H](NC(=O)[C@@H](CO)NC(C)=O)C(=O)N[C@H](CCSC)C(=O)N[C@H](Cc1ccccc1)C(=O)N[C@H](Cc1c[nH]c2ccccc12)C(=O)N[C@H](Cc1ccc(O)cc1)C(=O)N[C@H](CC(=O)O)C(=O)N[C@H](CCC(=O)O)C(=O)N[C@H](Cc1ccc(O)cc1)C(=O)N[C@H](CCC(=O)O)C(N)=O [Peptide B07, Ac-simfwydeye-NH2] (Ac-[dS][dI][dM][dF][dW][dY][dD][dE][dY][dE]-NH2) |  |  |  |  |  | possess activity |  |  |  |  |  |  |  | 195 µM (≈ 278 µg/mL) | 89% |  |  |  |  |  | 
CC(=O)CC(c1ccccc1)c1c(O)c2ccccc2oc1=O (stereo not shown) [Warfarin, warfarin] |  |  |  |  |  |  |  |  |  |  |  |  |  |  |  |  |  |  |  |  | recovery at 6 h, 10 μM [7]: 99.3%; recovery at 6 h, 10 μM [8]: 88.6%
Ac-RMDFDVWDLYFEIVW-NH2 [Peptide A03] | 477 mU/ml | 639 mU/ml | 762 mU/ml | 1069 mU/ml | 1396 mU/ml | possess activity | BLS (BLS = below lowest standard.) | BLS (BLS = below lowest standard.) | BLS (BLS = below lowest standard.) | BLS (BLS = below lowest standard.) | possess activity | BLS (BLS = below lowest standard.) | BLS (BLS = below lowest standard.) | 110 µM | 92% | BLS (BLS = below lowest standard.) | BLS (BLS = below lowest standard.) | BLS (BLS = below lowest standard.) | BLS (BLS = below lowest standard.) | BLS (BLS = below lowest standard.) | Peak Time FVIII EU ([3]; peptide 100 μM): BLS (BLS = below lowest standard.)
Ac-VWDLYFEIVW-NH2 [Peptide A19] | 383 mU/ml | 495 mU/ml | 525 mU/ml | 663 mU/ml | 826 mU/ml | possess activity |  |  |  |  |  |  |  | 14 µM | 99% |  |  |  |  |  | 
PEG5000-RMKFDVWDLYFEIVW-NH2 [Peptide A16] |  |  |  |  |  |  | BLS (BLS = below lowest standard.) | BLS (BLS = below lowest standard.) | BLS (BLS = below lowest standard.) | BLS (BLS = below lowest standard.) |  | BLS (BLS = below lowest standard.) | BLS (BLS = below lowest standard.) |  |  | BLS (BLS = below lowest standard.) | BLS (BLS = below lowest standard.) | BLS (BLS = below lowest standard.) | BLS (BLS = below lowest standard.) | BLS (BLS = below lowest standard.) | Peak Time FVIII EU ([3]; peptide 100 μM): BLS (BLS = below lowest standard.); Classification as HERG-channel blocker (potency ranking of Roche et al.) [9]: low-potency; Aqueous solubility [10]: 220 µM; Solubility in PBS [10]: >200 µM
PEG5000-WSLYFEIVWE [Peptide A17] |  |  |  |  |  |  | BLS (BLS = below lowest standard.) | BLS (BLS = below lowest standard.) | BLS (BLS = below lowest standard.) | BLS (BLS = below lowest standard.) | possess activity | BLS (BLS = below lowest standard.) | 5.1 mU/ml |  |  | BLS (BLS = below lowest standard.) | BLS (BLS = below lowest standard.) | BLS (BLS = below lowest standard.) | 0.1 nM | BLS (BLS = below lowest standard.) | Peak Time FVIII EU ([3]; peptide 100 μM): 5.9 mU/ml; Aqueous solubility [10]: 2000 µM
